Results reported in article PMC4764975, “Probing the enzyme kinetics, allosteric modulation and activation of α1- and α2-subunit-containing AMP-activated protein kinase (AMPK) heterotrimeric complexes by pharmacological and physiological activators” (Biochemical Journal, 2016).
Where two headings read alike, the source gives them in different places.

Legend:
BAP-tagged AMPK α1β2γ1 = molecular target: T1, BAP-tagged AMPK α1β2γ1 (Homo sapiens, UniProt O43741+P54619+Q13131); assay: SPR direct binding (Biacore)
T1 construct: Recombinant full-length AMPK heterotrimeric complexes α1β1γ1, α1β2γ1, α1β2γ3, α2β1γ1, α2β2γ1 and α2β2γ3 were cloned into a tricistronic vector system; 6X-His (N); made in house; host or cells: E. coli BL21-CodonPlus (DE3)-RIPL, co-expressed with BirA
T1 sequence (Q13131 whole entry): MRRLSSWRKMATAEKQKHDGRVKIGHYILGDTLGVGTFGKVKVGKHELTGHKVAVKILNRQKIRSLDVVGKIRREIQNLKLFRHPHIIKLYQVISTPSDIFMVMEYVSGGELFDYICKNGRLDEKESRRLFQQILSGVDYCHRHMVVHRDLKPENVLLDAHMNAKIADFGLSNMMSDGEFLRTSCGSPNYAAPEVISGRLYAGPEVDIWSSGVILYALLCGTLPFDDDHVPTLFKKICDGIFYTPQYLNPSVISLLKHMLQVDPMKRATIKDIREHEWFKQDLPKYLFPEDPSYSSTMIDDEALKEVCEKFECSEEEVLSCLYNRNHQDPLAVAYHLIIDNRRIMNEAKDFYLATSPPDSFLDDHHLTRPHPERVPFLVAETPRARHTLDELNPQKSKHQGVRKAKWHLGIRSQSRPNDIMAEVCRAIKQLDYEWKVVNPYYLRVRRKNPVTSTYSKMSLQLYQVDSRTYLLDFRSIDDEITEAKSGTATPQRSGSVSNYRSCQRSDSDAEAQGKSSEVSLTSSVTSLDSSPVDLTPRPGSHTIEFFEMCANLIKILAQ
T1 sequence (O43741 whole entry): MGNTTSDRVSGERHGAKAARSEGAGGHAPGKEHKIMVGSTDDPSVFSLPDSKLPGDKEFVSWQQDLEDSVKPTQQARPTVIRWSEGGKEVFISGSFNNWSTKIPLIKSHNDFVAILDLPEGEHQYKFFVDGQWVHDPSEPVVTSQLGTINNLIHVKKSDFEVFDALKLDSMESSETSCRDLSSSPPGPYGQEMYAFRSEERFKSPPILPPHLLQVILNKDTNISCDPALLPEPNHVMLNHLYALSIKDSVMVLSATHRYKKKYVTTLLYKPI
T1 sequence (P54619 whole entry): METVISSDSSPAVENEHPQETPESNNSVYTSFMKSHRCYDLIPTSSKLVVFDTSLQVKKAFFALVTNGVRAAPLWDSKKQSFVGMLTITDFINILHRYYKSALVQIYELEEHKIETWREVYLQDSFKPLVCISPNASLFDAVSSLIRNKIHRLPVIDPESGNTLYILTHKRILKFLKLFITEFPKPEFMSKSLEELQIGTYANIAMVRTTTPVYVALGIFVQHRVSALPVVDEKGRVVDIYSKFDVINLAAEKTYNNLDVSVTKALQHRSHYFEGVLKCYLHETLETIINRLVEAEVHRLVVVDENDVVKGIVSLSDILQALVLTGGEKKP
Procedure: (§1) SPR experiments were performed on a Biacore™ 3000 instrument (GE Healthcare). BAP-tagged AMPK isoform (α1β1γ1, α1β2γ1, α2β2γ1, α2β2γ3) was captured on to a streptavidin sensor chip to levels ranging from 4000 to 6000 RU. […] Binding responses were processed using Scrubber 2 (BioLogic Software Pty Ltd) to zero, x-align, double reference and corrected for excluded volume effect of DMSO in the data. […] The compound was injected at a flow rate of 50 μl/min with total contact time of 120 s and dissociation time of 600 s. Rate parameters (kon, koff) and corresponding dissociation constant(KD=koff/kon) were determined by globally fitting all of the experimental data to a simple 1:1 interaction model using Biaeval software (GE Healthcare). To determine nt binding, 10 concentrations with 2-fold dilutions were tested in duplicate. The highest concentration tested was 2 mM. The compound was injected at a flow rate of 50 μl/min with total contact time of 120 s and dissociation time of 300 s. Equilibrium dissociation constant (KD) was determined using a steady-state affinity algorithm available within Scrubber.
(§2) We then compared the binding of nts (AMP, ADP and ATP) to α1β1γ1, α1β2γ1, α2β2γ1 and α2β2γ3 isoforms in the presence and absence of Mg^2+ and Stau, using SPR technique.

BAP-tagged AMPK α2β2γ3 = molecular target: T2, BAP-tagged AMPK α2β2γ3 (Homo sapiens, UniProt O43741+P54646+Q9UGI9); assay: SPR direct binding (Biacore)
T2 construct: Recombinant full-length AMPK heterotrimeric complexes α1β1γ1, α1β2γ1, α1β2γ3, α2β1γ1, α2β2γ1 and α2β2γ3 were cloned into a tricistronic vector system; 6X-His (N); made in house; host or cells: E. coli BL21-CodonPlus (DE3)-RIPL, co-expressed with BirA
T2 sequence (P54646 whole entry): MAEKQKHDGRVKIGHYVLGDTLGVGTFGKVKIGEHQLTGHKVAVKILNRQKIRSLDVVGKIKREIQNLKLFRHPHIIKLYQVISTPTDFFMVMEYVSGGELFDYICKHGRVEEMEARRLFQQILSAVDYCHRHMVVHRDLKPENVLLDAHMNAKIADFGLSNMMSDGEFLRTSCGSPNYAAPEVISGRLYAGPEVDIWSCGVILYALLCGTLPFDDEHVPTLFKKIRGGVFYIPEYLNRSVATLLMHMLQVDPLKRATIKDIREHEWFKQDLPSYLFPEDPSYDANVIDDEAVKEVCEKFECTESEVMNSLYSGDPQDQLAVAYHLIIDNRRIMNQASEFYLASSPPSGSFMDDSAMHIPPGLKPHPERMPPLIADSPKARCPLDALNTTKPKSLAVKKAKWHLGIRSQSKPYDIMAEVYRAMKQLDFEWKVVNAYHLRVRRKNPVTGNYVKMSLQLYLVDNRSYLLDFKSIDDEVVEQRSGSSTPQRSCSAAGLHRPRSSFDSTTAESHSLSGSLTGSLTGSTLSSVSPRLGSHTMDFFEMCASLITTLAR
T2 sequence (O43741 whole entry): as the sequence (O43741 whole entry) above
T2 sequence (Q9UGI9 whole entry): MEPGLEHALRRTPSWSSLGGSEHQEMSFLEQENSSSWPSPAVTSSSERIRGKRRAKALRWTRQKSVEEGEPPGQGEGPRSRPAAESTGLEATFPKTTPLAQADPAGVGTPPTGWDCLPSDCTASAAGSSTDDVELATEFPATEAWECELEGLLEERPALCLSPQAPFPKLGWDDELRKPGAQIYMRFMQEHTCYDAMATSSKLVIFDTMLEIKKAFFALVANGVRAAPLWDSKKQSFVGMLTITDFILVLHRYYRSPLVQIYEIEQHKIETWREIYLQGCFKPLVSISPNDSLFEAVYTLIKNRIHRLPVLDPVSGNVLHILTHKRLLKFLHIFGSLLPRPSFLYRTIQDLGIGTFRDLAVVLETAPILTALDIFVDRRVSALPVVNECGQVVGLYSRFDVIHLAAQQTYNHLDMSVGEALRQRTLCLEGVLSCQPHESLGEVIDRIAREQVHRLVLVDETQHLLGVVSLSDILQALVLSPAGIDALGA
Procedure: as §1, §2

full-length, pAMPK = molecular target: full-length, pAMPK; design: method as in PMID 21399626; conditions: presence of Mg2+, cited from earlier work
BAP-tagged AMPK α2β2γ1 = molecular target: T3, BAP-tagged AMPK α2β2γ1 (Homo sapiens, UniProt O43741+P54619+P54646); assay: SPR direct binding (Biacore)
T3 construct: Recombinant full-length AMPK heterotrimeric complexes α1β1γ1, α1β2γ1, α1β2γ3, α2β1γ1, α2β2γ1 and α2β2γ3 were cloned into a tricistronic vector system; 6X-His (N); made in house; host or cells: E. coli BL21-CodonPlus (DE3)-RIPL, co-expressed with BirA
T3 sequence (P54646 whole entry): as the sequence (P54646 whole entry) above
T3 sequence (O43741 whole entry): as the sequence (O43741 whole entry) above
T3 sequence (P54619 whole entry): as the sequence (P54619 whole entry) above
Procedure: as §1
(§3) We then compared the binding of nts (AMP, ADP and ATP) to α1β1γ1, α1β2γ1, α2β2γ1 and α2β2γ3 isoforms in the presence and absence of Mg^2+ and Stau, using SPR technique. […]

BAP-tagged AMPK α1β1γ1 = molecular target: T4, BAP-tagged AMPK α1β1γ1 (Homo sapiens, UniProt P54619+Q13131+Q9Y478); assay: SPR direct binding (Biacore)
T4 construct: Recombinant full-length AMPK heterotrimeric complexes α1β1γ1, α1β2γ1, α1β2γ3, α2β1γ1, α2β2γ1 and α2β2γ3 were cloned; 6X-His (N); AviTag (BAP); made in house; host or cells: E. coli (co-expressed with BirA)
T4 sequence (Q13131 whole entry): as the sequence (Q13131 whole entry) above
T4 sequence (Q9Y478 whole entry): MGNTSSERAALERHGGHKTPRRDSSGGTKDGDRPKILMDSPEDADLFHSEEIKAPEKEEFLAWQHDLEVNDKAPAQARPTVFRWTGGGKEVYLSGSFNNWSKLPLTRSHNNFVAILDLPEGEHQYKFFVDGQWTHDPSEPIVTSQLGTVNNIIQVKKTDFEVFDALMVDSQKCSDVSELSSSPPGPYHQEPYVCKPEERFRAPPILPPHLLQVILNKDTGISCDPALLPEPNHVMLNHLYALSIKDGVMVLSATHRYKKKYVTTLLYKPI
T4 sequence (P54619 whole entry): as the sequence (P54619 whole entry) above
Procedure: as §1, §3

AMPK α1β2γ1 = molecular target: T5, AMPK α1β2γ1 (Homo sapiens, UniProt O43741+P54619+Q13131); assay: Steady-state kinetics, radiometric SAMS assay; type: biochemical; conditions: absence of AMP, SAMS fixed at ~10-fold Km, read-out: Km ATP
T5 construct: Recombinant full-length AMPK heterotrimeric complexes α1β1γ1, α1β2γ1, α1β2γ3, α2β1γ1, α2β2γ1 and α2β2γ3 were cloned; 6X-His (N); made in house; host or cells: E. coli BL21-CodonPlus (DE3)-RIPL
T5 sequence (Q13131 whole entry): as the sequence (Q13131 whole entry) above
T5 sequence (O43741 whole entry): as the sequence (O43741 whole entry) above
T5 sequence (P54619 whole entry): as the sequence (P54619 whole entry) above
Procedure: (§4) The kinase activity of pAMPK was measured via AMPK-mediated incorporation of ^33phosphate from [^33P]ATP into the synthetic peptide called SAMS [31] using the radiometric assay as described before. […] Assay linearity was ensured by determining that <30% substrate was depleted for all concentrations tested. The Km values were obtained in the absence of AMP in the reaction. Data were fitted by non-linear regression to the Michaelis–Menten equation using GraphPad prism to obtain the kinetic parameters. The specific radioactivity of each isoform was determined at saturating concentrations of each substrate.

AMPK α1β1γ1 = molecular target: T6, AMPK α1β1γ1 (Homo sapiens, UniProt P54619+Q13131+Q9Y478); assay: Steady-state kinetics, radiometric SAMS assay; type: biochemical; conditions: absence of AMP, SAMS fixed at ~10-fold Km, read-out: Km ATP
T6 construct: Recombinant full-length AMPK heterotrimeric complexes α1β1γ1, α1β2γ1, α1β2γ3, α2β1γ1, α2β2γ1 and α2β2γ3 were cloned; 6X-His (N); made in house; host or cells: E. coli BL21-CodonPlus (DE3)-RIPL
T6 sequence (Q13131 whole entry): as the sequence (Q13131 whole entry) above
T6 sequence (Q9Y478 whole entry): as the sequence (Q9Y478 whole entry) above
T6 sequence (P54619 whole entry): as the sequence (P54619 whole entry) above
Procedure: as §4

AMPK α2β2γ1 [1] = molecular target: T7, AMPK α2β2γ1 (Homo sapiens, UniProt O43741+P54619+P54646); assay: Steady-state kinetics, radiometric SAMS assay; type: biochemical; conditions: absence of AMP, SAMS fixed at ~10-fold Km, read-out: Km ATP
T7 construct: Recombinant full-length AMPK heterotrimeric complexes α1β1γ1, α1β2γ1, α1β2γ3, α2β1γ1, α2β2γ1 and α2β2γ3 were cloned; 6X-His (N); made in house; host or cells: E. coli BL21-CodonPlus (DE3)-RIPL
T7 sequence (P54646 whole entry): as the sequence (P54646 whole entry) above
T7 sequence (O43741 whole entry): as the sequence (O43741 whole entry) above
T7 sequence (P54619 whole entry): as the sequence (P54619 whole entry) above
Procedure: as §4

AMPK α1β2γ3 [2] = molecular target: T8, AMPK α1β2γ3 (Homo sapiens, UniProt O43741+Q13131+Q9UGI9); assay: Steady-state kinetics, radiometric SAMS assay; type: biochemical; conditions: absence of AMP, SAMS fixed at ~10-fold Km, read-out: Km ATP
T8 construct: Recombinant full-length AMPK heterotrimeric complexes α1β1γ1, α1β2γ1, α1β2γ3, α2β1γ1, α2β2γ1 and α2β2γ3 were cloned; 6X-His (N); made in house; host or cells: E. coli BL21-CodonPlus (DE3)-RIPL
T8 sequence (Q13131 whole entry): as the sequence (Q13131 whole entry) above
T8 sequence (O43741 whole entry): as the sequence (O43741 whole entry) above
T8 sequence (Q9UGI9 whole entry): as the sequence (Q9UGI9 whole entry) above
Procedure: as §4

AMPK α2β1γ1 [3] = molecular target: T9, AMPK α2β1γ1 (Homo sapiens, UniProt P54619+P54646+Q9Y478); assay: Steady-state kinetics, radiometric SAMS assay; type: biochemical; conditions: absence of AMP, SAMS fixed at ~10-fold Km, read-out: Km ATP
T9 construct: Recombinant full-length AMPK heterotrimeric complexes α1β1γ1, α1β2γ1, α1β2γ3, α2β1γ1, α2β2γ1 and α2β2γ3 were cloned; 6X-His (N); made in house; host or cells: E. coli BL21-CodonPlus (DE3)-RIPL
T9 sequence (P54646 whole entry): as the sequence (P54646 whole entry) above
T9 sequence (Q9Y478 whole entry): as the sequence (Q9Y478 whole entry) above
T9 sequence (P54619 whole entry): as the sequence (P54619 whole entry) above
Procedure: as §4

AMPK α2β2γ3 [4] = molecular target: T10, AMPK α2β2γ3 (Homo sapiens, UniProt O43741+P54646+Q9UGI9); assay: Steady-state kinetics, radiometric SAMS assay; type: biochemical; conditions: absence of AMP, SAMS fixed at ~10-fold Km, read-out: Km ATP
T10 construct: Recombinant full-length AMPK heterotrimeric complexes α1β1γ1, α1β2γ1, α1β2γ3, α2β1γ1, α2β2γ1 and α2β2γ3 were cloned; 6X-His (N); made in house; host or cells: E. coli BL21-CodonPlus (DE3)-RIPL
T10 sequence (P54646 whole entry): as the sequence (P54646 whole entry) above
T10 sequence (O43741 whole entry): as the sequence (O43741 whole entry) above
T10 sequence (Q9UGI9 whole entry): as the sequence (Q9UGI9 whole entry) above
Procedure: as §4

AMPK α2β2γ1 [5] = molecular target: T7, AMPK α2β2γ1; assay: Phosphatase (PP2Aα) sensitivity, pThr172/174 dephosphorylation; type: biochemical; conditions: PP2Aα concentration for half-maximal dephosphorylation, absence of activator, read-out: PP2Aα sensitivity dEC50
Procedure: (§5) Test compound was previously diluted in half-log increments, starting at 40 μM in 100% DMSO, diluted 10-fold in assay buffer and dispensed into a microtitre plate. After 15 min at room temperature, phosphatase was added to the mixture and the reaction was allowed to proceed for 60 min at room temperature. Reactions were quenched by the addition of okadaic acid, and transferred to PVDF membrane using the slot-blot apparatus and subjected to immunoblotting. Phosphatase sensitivity was similarly assessed by subjecting pAMPK to a phosphatase (PP2Aα) treatment using various concentrations and incubation times. The concentration of phosphatase was expressed as nmol of PP2Aα per minute per nmol of pAMPK in the reaction.
(§6) The membrane was blocked with Western Blot Blocking Buffer Reagent (Li-Cor) for 3–4 h at room temperature. The blot was probed using a rabbit α-pThr^172/174-specific antibody (Cell Signaling 40H9) at 1:500 dilution for 2 h and washed three times using 1 × PBS/0.1% Tween 20 (42°C pre-warmed wash buffer). Following the wash step, goat anti-rabbit 800CW (Rockland) at 1:10000 dilution was used as a secondary antibody. Blots were visualized using the Li-Cor Odyssey infrared imaging system and signal quantification was performed using the Odyssey software. The pEC50 values (estimated concentration of activator required for half-maximal protection of pThr^172/174 from PP2α) were calculated using GraphPad Prism software.
(§7) We then examined the sensitivity of phospho-α-Thr^172/174 (pThr^172/174) for dephosphorylation by phosphatase (PP2Aα) in the absence of allosteric modulators. The extent of dephosphorylation was measured using an antibody specific to α-pThr^172/174 as described in ‘Experimental’ section. […] The presence of the regulatory subunits (β and γ) leads to increased protection of pAMPK from dephosphorylation compared with the kinase domains alone (Figure 6). […] The dEC50 values for α2-containing isoforms were 40, 57 and 41 nM for α2β1γ1, α2β2γ1 and α2β2γ3 respectively; 13- to 18-fold right-shifted compared with that for isolated α2-kinase domain (Figure 6).
(§8) Figure 6 Phosphatase (PP2Aα) sensitivity of AMPK isoforms Effect of phosphatase (PP2Aα) on pThr^172/174 dephosphorylation of AMPK isoforms in the absence of activators is shown. Data are mean (n=2), and curves were generated using best-fit values.

AMPK α1β2γ3 [6] = molecular target: T8, AMPK α1β2γ3; assay: as above; type: biochemical; conditions: PP2Aα concentration for half-maximal dephosphorylation, absence of activator, read-out: PP2Aα sensitivity dEC50
Procedure: as §5, §6, §7, §8

AMPK α2β1γ1 [7] = molecular target: T9, AMPK α2β1γ1; assay: as above; type: biochemical; conditions: PP2Aα concentration for half-maximal dephosphorylation, absence of activator, read-out: PP2Aα sensitivity dEC50
Procedure: as §5, §6, §7, §8

[8] = molecular target: T11, AMPK α1-kinase domain (α1-KD) (Homo sapiens, UniProt Q13131); assay: as above; type: biochemical; conditions: PP2Aα concentration for half-maximal dephosphorylation, absence of activator, read-out: PP2Aα sensitivity dEC50
T11 construct: AMPK α1-kinase domain (α1-KD; residues 18–293); 6X-His (N); made in house; host or cells: E. coli BL21-CodonPlus (DE3)-RIPL (pET28a)
T11 sequence (Q13131 18-293): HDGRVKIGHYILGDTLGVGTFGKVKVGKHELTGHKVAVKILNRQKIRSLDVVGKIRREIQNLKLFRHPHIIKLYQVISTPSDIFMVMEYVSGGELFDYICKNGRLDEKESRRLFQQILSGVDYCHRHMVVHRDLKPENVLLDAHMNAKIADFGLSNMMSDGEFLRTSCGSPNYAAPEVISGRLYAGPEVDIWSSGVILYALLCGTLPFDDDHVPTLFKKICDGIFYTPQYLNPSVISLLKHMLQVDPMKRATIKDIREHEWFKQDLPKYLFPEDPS
Procedure: as §5, §6, §7, §8

AMPK α2β2γ3 [9] = molecular target: T10, AMPK α2β2γ3; assay: as above; type: biochemical; conditions: PP2Aα concentration for half-maximal dephosphorylation, absence of activator, read-out: PP2Aα sensitivity dEC50
Procedure: as §5, §6, §7, §8

[10] = molecular target: T12, AMPK α2-kinase domain (α2-KD) (Homo sapiens, UniProt P54646); assay: as above; type: biochemical; conditions: PP2Aα concentration for half-maximal dephosphorylation, absence of activator, read-out: PP2Aα sensitivity dEC50
T12 construct: α2-kinase domain (α2-KD; residues 7–282); 6X-His (N); made in house; host or cells: E. coli BL21-CodonPlus (DE3)-RIPL (pET28a)
T12 sequence (P54646 7-282): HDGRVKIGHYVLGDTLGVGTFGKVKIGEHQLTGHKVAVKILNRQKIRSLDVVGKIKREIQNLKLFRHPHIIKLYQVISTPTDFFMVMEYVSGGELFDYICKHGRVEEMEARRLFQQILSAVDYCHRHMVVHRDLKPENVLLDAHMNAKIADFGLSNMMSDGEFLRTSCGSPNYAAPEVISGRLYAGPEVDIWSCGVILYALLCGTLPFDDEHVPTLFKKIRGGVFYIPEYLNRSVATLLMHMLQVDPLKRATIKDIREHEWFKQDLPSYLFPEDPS
Procedure: as §5, §6, §7, §8

[11] = presence of Mg2+ and 25 nM Stau, cell spans KD1 and KD2, read-out: KD (single measurable binding affinity)
[12] = presence of Mg2+, cell spans KD1 and KD2, read-out: KD (single measurable binding affinity)
[13] = tighter site, absence of Mg2+ and Stau, read-out: KD1
[14] = weaker site, absence of Mg2+ and Stau, read-out: KD2

## Nc1ncnc2c1ncn2[C@@H]1O[C@H](COP(=O)(O)OP(=O)(O)OP(=O)(O)O)[C@@H](O)[C@H]1O [ATP]
BAP-tagged AMPK α1β2γ1; [11]
  Kd: 400 ± 20 µM
BAP-tagged AMPK α1β2γ1; [12]
  Kd: 95 ± 1 µM
BAP-tagged AMPK α1β2γ1; [13]
  Kd: 1.1 ± 0.04 µM
BAP-tagged AMPK α1β2γ1; [14]
  Kd: 3400 ± 300 µM
BAP-tagged AMPK α2β2γ3; [11]
  Kd: 540 ± 20 µM
BAP-tagged AMPK α2β2γ3; [12]
  Kd: 277 ± 4 µM
BAP-tagged AMPK α2β2γ3; [13]
  Kd: 7.6 ± 0.6 µM
BAP-tagged AMPK α2β2γ3; [14]
  Kd: 3500 ± 300 µM
full-length, pAMPK; read-out: equilibrium dissociation constant, stronger binding site
  Kd: 18 µM
full-length, pAMPK; read-out: equilibrium dissociation constant, weaker binding site
  Kd: 230 µM
BAP-tagged AMPK α2β2γ1; [11]
  Kd: 133 ± 4 µM
BAP-tagged AMPK α2β2γ1; [12]
  Kd: 95 ± 1 µM
BAP-tagged AMPK α2β2γ1; [13]
  Kd: 0.92 ± 0.03 µM
BAP-tagged AMPK α2β2γ1; [14]
  Kd: 2900 ± 200 µM
BAP-tagged AMPK α1β1γ1; [11]
  Kd: 300 ± 10 µM
BAP-tagged AMPK α1β1γ1; [12]
  Kd: 130 ± 1 µM
BAP-tagged AMPK α1β1γ1; [13]
  Kd: 1.35 ± 0.02 µM
BAP-tagged AMPK α1β1γ1; [14]
  Kd: 2260 ± 90 µM
AMPK α1β2γ1
  Km: 45.1 ± 5.8 µM
AMPK α1β1γ1
  Km: 26 ± 5.6 µM
AMPK α2β2γ1 [1]
  Km: 48 ± 5 µM
AMPK α1β2γ3 [2]
  Km: 333 ± 65 µM
AMPK α2β1γ1 [3]
  Km: 31.4 ± 9.3 µM
AMPK α2β2γ3 [4]
  Km: 417 ± 39 µM

## PP2Aα: Human recombinant protein phosphatase 2Aα catalytic subunit expressed in insect cells
AMPK α2β2γ1 [5]
  EC50: 0.057 µM
AMPK α1β2γ3 [6]
  EC50: 0.441 µM
AMPK α2β1γ1 [7]
  EC50: 0.04 µM
[8]
  EC50: 0.0032 µM
AMPK α2β2γ3 [9]
  EC50: 0.041 µM
[10]
  EC50: 0.0013 µM
